For assay [1], the target named is T1, TMEM97 (144-176) (Homo sapiens, UniProt Q5BJF2).
T1 construct: made in house; host or cells: chemical solid-phase synthesis (Fmoc, Wang resin)
Nature of the assay: Isothermal titration calorimetry, C-terminal of TMEM97. In kind it is binding. To be noted: ITC; the C-terminal of TMEM97. The procedure: Isothermal Titration Calorimetry (ITC). The three synthesized peptides, TMEM97 (108-176), TMEM97 (108-143) and TMEM97 (144-176) were prepared in ITC buffer (10 mM Tris, pH 7.4, 150 mM NaCl, 0.05% polysorbate 20) at 40 μM concentration and placed in the sample cell. All ITC experiments were performed while stirring at 395 rpm, in ITC buffer at 25° C. using a VP-ITC titration microcalorimeter from MicroCal™, LLC (Northampton, Mass.). The microsyringe was loaded with a Histatin 1 solution (500 μM in ITC buffer). All titrations were conducted using an initial injection of 2.5 μL followed by 35 identical injections of 5 μL with a duration of 16 seconds (per injection) and a spacing of 210 seconds between injections. The buffer control titration (Histatin 1 into buffer) signals were subtracted from the experimental data. The collected data were evaluated using NITPIC (NIH), SEDPHAT (NIH), and GUSSI (NIH).
To determine more precisely which segment of TMEM97 is necessary for binding of Hst1, multiple synthetic fragments of TMEM97 were generated (Table 6) and binding to Hst1 was tested using SPR. […] Smaller fragments of the C-terminal of TMEM97 were then constructed to represent the (predicted) luminal (108-143) and cytoplasmic (144-176) exposed segments of the C-terminus of TMEM97 based on modeling experiments previously described. […] SPR results for Hst1 were confirmed using ITC as an orthogonal analytical method.
(In general: ITC needs no label: the signal is the heat of the interaction.)

For assay [2], the target named is TMEM97 (Homo sapiens, UniProt Q5BJF2). Briefly: ELISA on plates coated with TMEM97. The assay is classed as binding. How it is done:
A co-immunoprecipitation (co-IP) assay was performed to determine if the interaction between Hst1 and TMEM97 was reproducible at the cellular level. […] These bands may represent monomeric and dimeric versions of Hst1 and are similar to what has been seen with western blot analyses of Hst1 containing samples. […] Enzyme-linked immunosorbent assay (ELISA) were also conducted to detect bound Hst1 on plates coated with TMEM97.

Square brackets hold non-standard residues; d marks the D form. Peptide text beside a SMILES is read from it. pS = N[C@@H](COP(=O)(O)O)C(=O)O

T1 sequence (Q5BJF2 144-176 limits assumed): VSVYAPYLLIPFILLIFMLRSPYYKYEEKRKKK
Chain of TMEM97 (Q5BJF2 whole entry, species assumed): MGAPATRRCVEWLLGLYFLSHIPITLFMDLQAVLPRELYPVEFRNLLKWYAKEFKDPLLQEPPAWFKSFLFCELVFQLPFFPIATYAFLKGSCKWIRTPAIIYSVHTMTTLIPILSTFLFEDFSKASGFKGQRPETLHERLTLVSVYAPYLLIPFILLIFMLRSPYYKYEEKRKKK

With `CC(C)C[C@H](NC(=O)[C@H](Cc1ccc(O)cc1)NC(=O)[C@H](CC(N)=O)NC(=O)[C@H](CO)NC(=O)CNC(=O)[C@H](Cc1ccc(O)cc1)NC(=O)[C@H](CC(=O)O)NC(=O)CNC(=O)[C@H](Cc1ccc(O)cc1)NC(=O)[C@H](Cc1ccccc1)NC(=O)[C@@H]1CCCN1C(=O)[C@H](Cc1ccccc1)NC(=O)[C@H](CCC(=O)O)NC(=O)[C@H](CCCNC(=N)N)NC(=O)[C@H](Cc1c[nH]cn1)NC(=O)[C@H](CO)NC(=O)[C@H](Cc1c[nH]cn1)NC(=O)[C@H](Cc1c[nH]cn1)NC(=O)[C@H](CCCCN)NC(=O)[C@H](CCC(=O)O)NC(=O)[C@H](Cc1c[nH]cn1)NC(=O)[C@H](Cc1ccccc1)NC(=O)[C@H](CCCCN)NC(=O)[C@H](CCCNC(=N)N)NC(=O)[C@H](CCCNC(=N)N)NC(=O)[C@H](Cc1ccc(O)cc1)NC(=O)CNC(=O)[C@H](Cc1c[nH]cn1)NC(=O)[C@H](Cc1c[nH]cn1)NC(=O)[C@H](CCCNC(=N)N)NC(=O)[C@H](CCCCN)NC(=O)[C@H](CCC(=O)O)NC(=O)[C@H](Cc1c[nH]cn1)NC(=O)[C@H](COP(=O)(O)O)NC(=O)[C@@H](N)CC(=O)O)C(=O)N[C@@H](Cc1ccc(O)cc1)C(=O)N[C@@H](CC(=O)O)C(=O)N[C@@H](CC(N)=O)C(=O)O` [Hst1] (H-D[pS]HEKRHHGYRRKFHEKHHSHREFPFYGDYGSNYLYDN-OH; N-terminus and C-terminus assumed), in assay [1], binding was characterised by a dissociation constant (Kd) of 460 ± 120 nM, the ΔH was -790 ± 28 kcal/mol and the ΔS is on record as −2.28(±0.37)×10^3 cal/mol K. Besides, in assay [2], the “binding to TMEM97 in ELISA” value is “confirmed binding”. In addition, the “effect of DTG on Hst1 binding in ELISA” value in assay [2] (addition of 1,3-Di-o-tolylguanidine (DTG)) is reported as “did not alter”.

For the origin of these results see US20230190870A1, “Method for Treating Lysosomal Storage Diseases with Histatin Peptides” (THE BOARD OF TRUSTEES OF THE UNIVERSITY OF ILLINOIS, priority 2020, published 2023).
